From PubChem BioAssay AID1963832 (Molecular Pharmacology Branch, DTP, NCI, 2024)
Several values for one entry are separate records, joined by “and”; a condition that tells them apart may be missing. Equal entries are not always repeated.

System: 885724-159-R-J1-PDC complex spheroid viability
Test: Anticancer human tumor 885724-159-R-J1-PDC patient-derived pancreatic adenocarcinoma cell line growth inhibition [POLQ]
Conditions: for viability, T/C: stronger effect = lower value
Procedure: Multicellular complex tumor spheroid response to Polymerase (POL) inhibitors (novobiocin, ART-558, RP6685) in combination with a variety of drugs and investigational agents in selected tumor cell lines
The POL inhibitors (novobiocin, ART-558, and RP6685) were evaluated both individually and in combination with standard of care and investigational anticancer small molecules within a complex spheroid model of solid tumors. . Complex spheroids include a stromal component modeled by human endothelial cells (HUVEC) and fibroblasts modeled by human mesenchymal stem cells (MSCs). The concentration ranges selected for each drug and investigational agent were based upon clinically achievable concentrations if the clinical Cmax of the agent was known.
Compounds. The drugs and investigational agents: novobiocin (NSC847541), ART-558 (NSC835418), RP-6685 (NSC848927), peposertib (NSC802822), ceralasertib (NSC780249), elimusertib (NSC800525), camonsertib (NSC841442), AZD-1390 (NSC803789), olaparib (NSC753686), talazoparib (NSC767125), rucaparib (NSC756644), sotorasib (NSC818433), MRTX-1133 (NSC836407), SN-38 (NSC673596), topotecan (NSC609699), epotoside (NSC141540), doxorubicin (NSC123127), gemcitabine (NSC613327), 5-fluorouracil (NSC19893), paclitaxel (NSC125973), vemurafenib (NSC761431), MSA-2 (NSC828583), SN-011 (NSC837082), adavosertib (NSC754352), prexasertib (NSC758257), carboplatin (NSC241240) and oxaliplatin (NSC266046), were obtained from the National Cancer Institute (NCI) Developmental Therapeutics Program Chemical Repository (21). The FDA-approved anticancer drug set is available from the Developmental Therapeutics Program at https://dtp.cancer.gov/organization/dscb/obtaining/. […] The stock solutions were prepared in dimethyl sulfoxide (DMSO, Sigma-Aldrich, St. Louis, MO, cat. D2650), except for the platinum compounds which were prepared in saline (Quality Biological, Gaithersburg, MD, cat. 114-055-101), at 800-fold the tested concentration and stored at -70 degrees C prior to their use. All drugs and investigational agents were tested over a range starting from a high concentration at or near the clinical Cmax and decreasing in half-log increments. If the clinical Cmax for an agent had not been determined, the highest concentration tested was 10 microM, except for SN-38, which was tested at a high concentration of 1 microM.
Cell Culture. All cells were maintained in an incubator at 37 degrees C and 5% CO2 with 95% humidity. The PDC lines were cultured according to standard operating procedures established by the NCI PDMR (https://pdmr.cancer.gov). Table 3 of the manuscript, lists the cell lines along with the number of the three cell types plated to form the mct-spheroids and media for tumor cell growth. After thawing, all PDC lines, except 997537-175-T-J1-PDC and 415267-285-R-J2-PDC, were cultured in Matrigel-coated flasks prepared with a working solution of 1X Ham's F-12 nutrient mix, without supplementation (Thermo Fisher Scientific, cat. 11765054), 100 U/mL penicillin-streptomycin (Thermo Fisher Scientific, cat. 15140122), and 2.5% Matrigel (Corning Inc., Corning, NY, cat. 354248) for the first three passages. The two PDC lines 997537-175-T-J1-PDC and 415267-285-R-J2-PDC were cultured on uncoated flasks. The 857933-349-R-J2-PDC line was cultured in 6C/Colon 1B media containing advanced DMEM/F-12 (Thermo Fisher Scientific, cat. 12634028), 10 mM HEPES (Thermo Fisher Scientific, cat. 15630080), 1X GlutaMAX supplement (Thermo Fisher Scientific, cat. 35050061), 0.1 mg/mL primocin (InvivoGen, San Diego, CA, cat. ant-pm-2), 10% defined fetal bovine serum, heat inactivated (HyClone Laboratories Inc., Logan, UT, cat. SH30070.03HI), 50% L-WRN conditioned media (ATCC, cat. CRL-3276), 1.25 mM N-Acetyl-L-cysteine (Sigma-Aldrich, cat. A9165), 10 mM nicotinamide (Sigma-Aldrich, cat. N0636), 1X B-27 supplement (Thermo Fisher Scientific, cat. 17504044), 1X N-2 supplement (Thermo Fisher Scientific, cat. […]
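Further: spheroids exposed to compounds for 7 days.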

Compound: CC1COCCN1c1cc(C2(O)CC3CCC(C2)O3)c2cnn(-c3ccn[nH]3)c2n1 (stereo not drawn)
- viability, T/C (compound 0.0316 µM): 74.4% and 70.9% and 67.4%
- viability, T/C (compound 0.1 µM): 52.9% and 50.4% (2×)
- viability, T/C (compound 0.316 µM): 48.7% and 37.5% and 44.3%
- viability, T/C (compound 1 µM): 41.8% and 37.1% and 40.4%
- viability, T/C (compound 3.16 µM): 37.3% and 33.5% and 35.4%
- viability, T/C (compound 10 µM): 28.7% and 26.5% and 27.9%
- IC50 (curve of compound): 0.226 µM and 0.106 µM and 0.156 µM

Compound: COc1cc2cc(C(=O)CCC(=O)O)sc2cc1OC
- viability, T/C (compound 0.0316 µM): 102% and 90.8% and 94.2%
- viability, T/C (compound 0.1 µM): 96.9% and 97.3% and 92%
- viability, T/C (compound 0.316 µM): 98.9% and 97.8% and 108%
- viability, T/C (compound 1 µM): 96.4% and 105% and 95.9%
- viability, T/C (compound 3.16 µM): 103% and 99% and 107%
- viability, T/C (compound 10 µM): 94.9% and 89% and 90.3%
- IC50 (curve of compound): > 10 µM

Compound: O=C(c1cc(Cc2n[nH]c(=O)c3ccccc23)ccc1F)N1CCN(C(=O)C2CC2)CC1 + COC1C(OC(N)=O)C(O)C(Oc2ccc3c(O)c(NC(=O)c4ccc(O)c(CC=C(C)C)c4)c(=O)oc3c2C)OC1(C)C
- IC50 (curve of first compound, second compound 0.0316 µM): > 10 µM
- IC50 (curve of first compound, second compound 0.1 µM): > 10 µM
- IC50 (curve of first compound, second compound 0.316 µM): > 10 µM
- IC50 (curve of first compound, second compound 1 µM): > 10 µM
- IC50 (curve of first compound, second compound 3.16 µM): > 10 µM
- IC50 (curve of first compound, second compound 10 µM): > 10 µM
- viability, T/C (second compound 0.0316 µM, first compound 0.0316 µM): 101%
- viability, T/C (second compound 0.0316 µM, first compound 0.1 µM): 93.9%
- viability, T/C (second compound 0.0316 µM, first compound 0.316 µM): 91.4%
- viability, T/C (second compound 0.0316 µM, first compound 1 µM): 88.3%
- viability, T/C (second compound 0.0316 µM, first compound 3.16 µM): 90.8%
- viability, T/C (second compound 0.0316 µM, first compound 10 µM): 78.9%
- viability, T/C (second compound 0.1 µM, first compound 0.0316 µM): 97.4%
- viability, T/C (second compound 0.1 µM, first compound 0.1 µM): 85.9%
- viability, T/C (second compound 0.1 µM, first compound 0.316 µM): 86%
- viability, T/C (second compound 0.1 µM, first compound 1 µM): 88%
- viability, T/C (second compound 0.1 µM, first compound 3.16 µM): 86.3%
- viability, T/C (second compound 0.1 µM, first compound 10 µM): 83.9%
- viability, T/C (second compound 0.316 µM, first compound 0.0316 µM): 94.8%
- viability, T/C (second compound 0.316 µM, first compound 0.1 µM): 91.4%
- viability, T/C (second compound 0.316 µM, first compound 0.316 µM): 90.3%
- viability, T/C (second compound 0.316 µM, first compound 1 µM): 89.2%
- viability, T/C (second compound 0.316 µM, first compound 3.16 µM): 85.5%
- viability, T/C (second compound 0.316 µM, first compound 10 µM): 75.7%
- viability, T/C (second compound 1 µM, first compound 0.0316 µM): 85.8%
- viability, T/C (second compound 1 µM, first compound 0.1 µM): 89.6%
- viability, T/C (second compound 1 µM, first compound 0.316 µM): 89.5%
- viability, T/C (second compound 1 µM, first compound 1 µM): 95.8%
- viability, T/C (second compound 1 µM, first compound 3.16 µM): 85.4%
- viability, T/C (second compound 1 µM, first compound 10 µM): 79.9%
- viability, T/C (second compound 3.16 µM, first compound 0.0316 µM): 96.4%
- viability, T/C (second compound 3.16 µM, first compound 0.1 µM): 85.7%
- viability, T/C (second compound 3.16 µM, first compound 0.316 µM): 104%
- viability, T/C (second compound 3.16 µM, first compound 1 µM): 85.5%
- viability, T/C (second compound 3.16 µM, first compound 3.16 µM): 92.8%
- viability, T/C (second compound 3.16 µM, first compound 10 µM): 79.7%
- viability, T/C (second compound 10 µM, first compound 0.0316 µM): 96.3%
- viability, T/C (second compound 10 µM, first compound 0.1 µM): 83%
- viability, T/C (second compound 10 µM, first compound 0.316 µM): 92.4%
- viability, T/C (second compound 10 µM, first compound 1 µM): 85.1%
- viability, T/C (second compound 10 µM, first compound 3.16 µM): 91.1%
- viability, T/C (second compound 10 µM, first compound 10 µM): 69.9%

Compound: Nc1ccc(C#CCN(C(=O)Cc2ncc(C(F)(F)F)cc2C(F)(F)F)c2ccc(F)cc2)nn1
- viability, T/C (compound 0.0316 µM): 94.8% [middle of 13 runs]
- viability, T/C (compound 0.1 µM): 93.2% [middle of 13 runs]
- viability, T/C (compound 0.316 µM): 97% [middle of 13 runs]
- viability, T/C (compound 1 µM): 96.2% [middle of 13 runs]
- viability, T/C (compound 3.16 µM): 97.6% [middle of 13 runs]
- viability, T/C (compound 10 µM): 105% [middle of 12 runs]
- IC50 (compound alone, run of 12/05/2023): > 10 µM
